We go through 2 compounds from article PMC9645260, “Small-molecule inhibitors of P-Rex guanine-nucleotide exchange factors” (Small GTPases, 2022).

In this assay the target is T1, P-Rex1 DHPH domains (Homo sapiens, UniProt Q8TCU6).
T1 construct: 100 nM EE-P-Rex1 DHPH domains (PREX-in1, compounds 2–10 and 30–128); made in house; host or cells: Sf9 cells (baculovirus)
Briefly: Liposome-based GEF activity assay, isolated P-Rex1 DHPH domains. Format: biochemical. The following applies: for remaining activity at 10 µM: 10 µM compound, 100 nM EE-P-Rex1 DHPH domains, 200 nM prenylated EE-Rac1, PREX-in1, compounds 2-10 and 30-128. The protocol:
Full-length N-terminally EE-tagged P-Rex1, P-Rex2, the P-Rex1 DH and DHPH domains and the P-Rex2 DH domain were produced in Sf9 cells using baculoviral transduction and were purified using anti-EE beads, as previously described. Briefly, frozen pellets from 500 ml of Sf9 culture infected with P-Rex expressing high-titre baculovirus were resuspended in ice-cold lysis Sf9-cell lysis buffer 2 (1x PBS, 1% Triton X-100, 5 mM EGTA, 1 mM EDTA, 25 mM NaF, 20 mM β-glycerophosphate, 1 mM DTT, 100 µM PMSF, 10 μg/ml each of leupeptin, pepstatin A, aprotinin and antipain) for 5 min and then ultracentrifuged at 118,000 × g for 1 h at 4°C. Supernatants were incubated with pre-washed anti-EE beads for 90 min on ice with end-over-end rotation. Beads were washed 4 times in wash buffer (2x PBS, 0.1% Triton X-100, 1 mM EGTA) and 5 times in elution buffer (1x PBS, 10% glycerol, 1 mM DTT, 1 mM EGTA, 0.01% Na azide), and protein was eluted by incubation with elution buffer containing Ac-EEYMPME peptide as described above. Protein was concentrated in a YM-100 Centricon (Millipore) at 5000 × g at 4°C. Fatty acid-free BSA and glycerol were added to final concentrations of 2 mg/ml and 50%, respectively. Protein concentration and purity were determined by coomassie staining of SDS-PAGE gels. Full-length Tiam1, expressed in and purified from Sf9 cells, was a kind gift from Angeliki Malliri, CRUK Manchester Institute, UK. The ITSN1 DHPH domains and Ect2 DHPH domains, produced in and purified from bacteria, were a kind gift from Kent Rossman, University of North Carolina, Chapel Hill, USA. The DOCK10 DHR2 domain, produced in and purified from bacteria, was a kind gift from Danni Fan, Institute of Cancer Research, London, UK. All small GTPase and GEF proteins were stored in aliquots at −80°C and were snap-frozen in liquid N2 after each use.
Liposome-based GEF activity assays were carried out essentially as described, except that GEFs were incubated with inhibitor compounds prior to the assay. GEFs (full-length P-Rex1, P-Rex2, and Tiam1, P-Rex1 DH and DHPH domains, P-Rex2 DH domain, ITSN1 DHPH domains, ECT2 DHPH domains or DOCK10 DHR2 domain) were diluted in 20 mM HEPES (pH 7.0 at 4°C), 200 mM KCl, 10% ethylene glycerol, 1% betaine, 500 µM EGTA, 0.01% azide. […] The final 10 µl samples contained GTPase, GEF and inhibitor at concentrations as stated, in 20 mM HEPES pH 7.5, 100 mM NaCl, 1 mM MgCl2, 1 mM EGTA, 1 mM DTT, 10 mg/ml fatty acid-free BSA, liposomes consisting of phosphatidylcholine, -serine and -inositol (200 µM each), with or without 10 µM PIP3, 1 µM GTPγS and 80 nM (1 µCi) ^35S-GTPγS. Positive controls contained additionally 2 mM EDTA to induce maximal GTP-loading of the GTPase. Samples were incubated at 30°C for 10 min, and reactions were stopped by the addition of 400 µl ice-cold wash buffer (1x PBS, 1 mM EGTA, 10 mM MgCl2, 1% Triton X-100, 100 µM GTP). Small GTPases were isolated using anti-EE antibody-coupled Sepharose beads or glutathione Sepharose beads, as appropriate, by incubation on ice for 90 min with end-over-end rotation, four washes in ice-cold wash buffer and resuspension of beads in Ultima Gold scintillation fluid (Perkin Elmer). ^35S-GTPγS incorporation was assessed by scintillation counting (Packard 1600TR, Liquid Scintillation Analyser).

One may read the remaining activity as the activity still measured, relative to the control. The low end stands for little activity left, the high end for much activity left. In general, inhibition refers to the percentage by which the read-out fell short of the control. For orientation: IC50 means the concentration at which inhibition is half-maximal.

Like-named read-outs stand apart in the source and are kept apart here. Where only a bound is given, the exact number is not on record here.

T1 sequence (Q8TCU6 49-392 limits assumed): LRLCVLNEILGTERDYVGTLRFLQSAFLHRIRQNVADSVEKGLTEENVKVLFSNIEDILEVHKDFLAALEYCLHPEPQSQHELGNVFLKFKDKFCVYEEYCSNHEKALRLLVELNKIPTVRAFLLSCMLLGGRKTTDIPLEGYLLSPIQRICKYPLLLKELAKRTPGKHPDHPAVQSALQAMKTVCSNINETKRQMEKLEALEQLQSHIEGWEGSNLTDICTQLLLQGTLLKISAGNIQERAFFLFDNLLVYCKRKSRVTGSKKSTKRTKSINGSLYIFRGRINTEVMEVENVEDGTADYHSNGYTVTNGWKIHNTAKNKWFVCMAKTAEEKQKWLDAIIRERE

On to `COc1ccc(-c2[nH]nc3c2C(c2ccc(-c4ccc(Cl)cc4)o2)C(C#N)=C(N)O3)cc1` (centres unmarked) [PREX-in1, 6-amino-4-[5-(4-chlorophenyl)-2-furyl]-3-(4-methoxyphenyl)-2,4-dihydropyrano[2,3-c]pyrazole-5-carbonitrile], for which the remaining activity at 10 µM was 3%. Also, the inhibition at 10 µM (100 nM DHPH domains, without PIP3, read-out: inhibition of constitutive Rac-GEF activity of isolated P-Rex1 DHPH domains) came out at 100%. Also, the inhibition at 10 µM (Rho-GEF selectivity panel, 200 nM GTPase, read-out: inhibition of P-Rex1 DHPH Rac-GEF activity) is over 90%. Besides, the half-maximal inhibitory concentration (IC50) (liposome-based GEF assay, 200 nM prenylated EE-Rac2 as substrate, read-out: IC50 of inhibition of P-Rex1 DHPH Rac-GEF activity) amounted to 4.5 µM.

`CC1CCC(C(C)C)c2nn(C(=O)/C=C\c3ccccc3)c(-c3cccc4ccccc34)c21` (centres unmarked) [#10] gave a remaining activity at 10 µM of 28%.
